Assay results: US10689429B2, “Double-acylated GLP-1 compounds” (Novo Nordisk A/S, priority 2014, dated 2020)

Assays:
human GLP-1 receptor = target: T1, human GLP-1 receptor (Homo sapiens, UniProt P43220); experiment: In vitro potency, CRE luciferase reporter gene assay in BHK cells expressing the human GLP-1 receptor; format: cell-based; details: average of duplicates;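 also: firefly luciferase luminescence read after 3 h incubation at 37 °C, compounds tested in an eight-point series from 0.01 pM to 100 nM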
T1 construct: expressed in transfected cells; host or cells: membranes from BHK cells, parent line BHKTS13, clone FCW467-12A
T1 sequence (P43220 24-463): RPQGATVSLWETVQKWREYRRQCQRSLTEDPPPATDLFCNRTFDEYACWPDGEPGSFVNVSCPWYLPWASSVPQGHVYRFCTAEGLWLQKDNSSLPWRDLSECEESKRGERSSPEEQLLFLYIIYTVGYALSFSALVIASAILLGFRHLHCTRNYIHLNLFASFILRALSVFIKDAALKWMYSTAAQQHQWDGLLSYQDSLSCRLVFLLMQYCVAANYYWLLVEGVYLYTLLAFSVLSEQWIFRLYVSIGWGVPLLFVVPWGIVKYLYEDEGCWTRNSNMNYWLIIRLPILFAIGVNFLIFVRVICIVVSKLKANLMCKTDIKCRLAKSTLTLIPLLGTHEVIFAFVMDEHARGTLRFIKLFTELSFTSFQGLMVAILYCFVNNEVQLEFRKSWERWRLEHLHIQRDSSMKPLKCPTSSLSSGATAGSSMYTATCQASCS
Experimental: The in vitro potency is the measure of human GLP-1 receptor activation in a whole cell assay.
In vitro potency was determined by measuring the response of the human GLP-1 receptor in a reporter gene assay. The assay was performed in a stably transfected BHK cell line that expresses the human GLP-1 receptor and contains the DNA for the cAMP response element (CRE) coupled to a promoter and the gene for firefly luciferase (CRE luciferase). When the human GLP-1 receptor is activated it results in the production of cAMP, which in turn results in the luciferase protein being expressed. When assay incubation is completed the luciferase substrate (luciferin) is added and the enzyme converts luciferin to oxyluciferin to produce bioluminescence. The luminescence is measured as the readout for the assay.
An increase of the in vitro potency, EC50 value, in the presence of serum albumin would indicate an affinity to serum albumin and represents a method to predict a protracted pharmacokinetic profile of the test substance in animal models.
The cells were cultured at 5% CO2 in Cell Culture Medium. They were aliquoted and stored in liquid nitrogen. Before each assay an aliquot is taken up and washed twice in PBS before being suspended at the desired concentration in the assay specific buffer. For 96-well plates the suspension was made to give a final concentration of 5×10^3 cells/well.
Assay Medium consisted of DMEM w/o phenol red, 10 mM Hepes and 1× Glutamax. The 1% Assay Buffer consisted of 2% ovalbumin, 0.2% Pluronic F-68 and 2% HSA in Assay Medium. The 0% Assay Buffer consisted of 2% ovalbumin and 0.2% Pluronic F-68 in Assay Medium.
1) Cell stocks were thawed in a 37° C. water bath.
2) Cells were washed three times in PBS.
3) The cells were counted and adjusted to 5×10^3 cells/50 μl (1×10^5 cells/ml) in Assay Medium. A 50 μl aliquot of cells was transferred to each well in the assay plate.
4) Stocks of the test compounds and reference compounds were diluted to a concentration of 0.2 pM in 0% Assay Buffer for the 0% HSA CRE luciferase assay and 1% Assay Buffer for the 1% HSA CRE luciferase assay. […] Compounds were tested at the following final concentrations: 1×10^−7 M, 1×10^−8 M; 1×10^−9 M, 1×10^−10 M, 1×10^−11 M, 1×10^−12 M, 1×10^−13 M, and 1×10^−14 M. 6) The assay plate was incubated for 3 h in a 5% CO2 incubator at 37° C. […] 8) A 100 μl aliquot of steadylite plus reagent was added to each well of the assay plate (reagent was light sensitive). 9) Each assay plate was covered with aluminum foil to protect it from light and shaken for 30 min at room temperature. 10) Each assay plate was read in a Packard TopCount NXT instrument. Calculations and Results
The data from the TopCount instrument were transferred to GraphPad Prism software. The software performs a non-linear regression (log(agonist) vs response).
A minimum of two replicates was measured for each sample on separate assay plates. The reported values are averages of the duplicates. For some examples more than one assay was run and in this case the data reported are the averages of the averaged duplicates.

[1] = Pharmacokinetic study in mini pigs after i.v. administration; format: in vivo; details: female, Göttingen, pig, plasma, iv, 2 nmol/kg; read-out: Minipig iv PK, t½ (converted)
Experimental: The purpose of this study is to determine the protraction in vivo of the GLP-1 derivatives after i.v. administration to mini pigs, i.e. the prolongation of their time in the body and thereby their time of action. This was done in pharmacokinetic (PK) studies, where the terminal half-life of the derivative in question was determined. By terminal half-life is generally meant the period of time it takes to halve a certain plasma concentration, measured after the initial distribution phase.
Female Göttingen mini pigs obtained from Ellegaard Göttingen Minipigs (Dalmose, Denmark) at approximately 5 months of age and weighing approximately 10 kg were used in the studies. The mini pigs were housed in pens with straw as bedding, four to six together in each pen and fed restrictedly once or twice daily with Altromin 9023 mini pig diet (Chr. Petersen A/S, DK-4100 Ringsted). The pigs were used for repeated pharmacokinetic studies with a suitable wash-out period between successive GLP-1 derivative dosings. An acclimatisation period of 1 week was allowed during which time the mini pigs were trained to be fixated on the back for blood sampling and in slings for i.v. dosing. All handling, dosing and blood sampling of the animals was performed by trained and skilled staff.
The GLP-1 derivatives were dissolved in 50 mM sodium phosphate, 70 mM sodium chloride, 0.05% tween 80, pH 7.4 to a concentration of approximately 20 nmol/ml. Intravenous injections (the volume corresponding to usually 2 nmol/kg, for example 0.1 ml/kg) of the compounds were given as intravenous injections via a Venflon inserted in an ear vein, while the animals were placed un-anaesthetised in a sling. The dose volume was 0.1 ml/kg, and blood was sampled at predefined time points for up till 13 days post dosing (samples were taken with a syringe from a jugular vein). Blood samples (for example 0.8 ml) were collected in EDTA buffer (8 mM) and then centrifuged at 4° C. and 2000 G for 10 minutes.
Individual plasma concentration-time profiles were analysed by a non-compartmental model in WinNonlin v. […] 6.2 or 6.3 (Pharsight Inc., Mountain View, Calif., USA), or other relevant software for PK analysis, and the resulting terminal half-lives determined.

[2] = Pharmacokinetic studies in Beagle dogs (i.v. and p.o.); format: in vivo; details: dog, plasma
Experimental: Pharmacokinetic (PK) studies in Beagle dogs were conducted in order to determine a) the protraction of the GLP-1 derivatives after i.v. administration, and b) the bioavailability of the GLP-1 derivatives after p.o. administration.
By protraction is meant the prolongation of the time in the body and thereby the time of action of the GLP-1 derivatives. This was done in pharmacokinetic (PK) studies, where the terminal half-life of the derivative in question was determined. By terminal half-life is generally meant the period of time it takes to halve a certain plasma concentration, measured after the initial distribution phase.
The dogs were housed in pens (12 hours light: 12 hours dark) with softwood based granules as bedding, two together in each pen and fed restrictedly once daily with […] ™ Struvite Management Diet (Dechra Veterinary Products, UK). Exercise was permitted daily, whenever possible. The dogs were used for repeated pharmacokinetic studies with a suitable wash-out period between successive GLP-1 derivative dosings. An acclimatisation period of 4 weeks was allowed during which time the dogs were trained. All handling, dosing and blood sampling of the animals was performed by trained and skilled staff. The dogs were fasted overnight before dosing and from 0 to 4 h after dosing, but had ad libitum access to water during the whole period.
The dogs were housed in social groups (12 hours light: 12 hours dark), and fed individually and restrictedly once daily with Royal Canin Medium Adult dog (Royal Canin Products, China Branch, or Brogaarden A/S, Denmark). Exercise and group social was permitted daily, whenever possible. The dogs were used for repeated pharmacokinetic studies with a suitable wash-out period between successive GLP-1 derivative dosings. An appropriate acclimatisation period was given prior to initiation of the first pharmacokinetic study. All handling, dosing and blood sampling of the animals was performed by trained and skilled staff. Before the studies the dogs were fasted overnight and from 0 to 4 h after dosing. […]

Q: Which results are given for CC[C@H](C)[C@H](NC(=O)[C@H](Cc1ccccc1)NC(=O)[C@H](CCC(=O)O)NC(=O)[C@H](CCCNC(=N)N)NC(=O)[C@H](C)NC(=O)[C@H](C)NC(=O)[C@H](CCC(N)=O)NC(=O)[C@H](CCC(=O)O)NC(=O)[C@H](CCC(=O)O)NC(=O)[C@H](CC(C)C)NC(=O)[C@H](Cc1ccc(O)cc1)NC(=O)[C@H](CO)NC(=O)[C@H](CO)NC(=O)[C@@H](NC(=O)[C@H](CC(=O)O)NC(=O)[C@H](CO)NC(=O)[C@@H](NC(=O)[C@H](Cc1ccccc1)NC(=O)[C@@H](NC(=O)CNC(=O)[C@H](CCC(=O)O)NC(=O)C(C)(C)NC(=O)[C@@H](N)Cc1c[nH]cn1)[C@@H](C)O)[C@@H](C)O)C(C)C)C(=O)N[C@@H](C)C(=O)N[C@@H](Cc1c[nH]c2ccccc12)C(=O)N[C@@H](CC(C)C)C(=O)N[C@H](C(=O)N[C@@H](CCCNC(=N)N)C(=O)NCC(=O)N[C@@H](CCCCNC(=O)COCCOCCNC(=O)COCCOCCNC(=O)CC[C@H](NC(=O)CCCCCCCCCCOc1ccc(C(=O)O)cc1)C(=O)O)C(=O)N[C@@H](CCCCNC(=O)COCCOCCNC(=O)COCCOCCNC(=O)CC[C@H](NC(=O)CCCCCCCCCCOc1ccc(C(=O)O)cc1)C(=O)O)C(=O)O)C(C)C [Example 1, N{Epsilon-36}-[2-[2-[2-[[2-[2-[2-[[(4S)-4-carboxy-4-[11-(4-carboxyphenoxy)undecanoylamino]butanoyl]amino]ethoxy]ethoxy]acetyl]amino]ethoxy]ethoxy]acetyl], N{Epsilon-37}-[2-[2-[2-[[2-[2-[2-[[(4S)-4-carboxy-4-[11-(4-carboxyphenoxy)undecanoylamino]butanoyl]amino]ethoxy]ethoxy]acetyl]amino]ethoxy]ethoxy]acetyl]-[Aib8,Glu22,Arg26,Arg34,Lys36,Lys37]-GLP-1-(7-37)-peptide]?
A: EC50 (human GLP-1 receptor; EC50/pM (0% HSA), 0% HSA): 1.2 pM; EC50 (human GLP-1 receptor; EC50/pM (1% HSA), 1% HSA final assay concentration): 136 pM; half-life [1]: 103 h; half-life ([2]; iv, 2 nmol/kg, read-out: Beagle dogs iv PK, t½ (converted)): 85 h; bioavailability ([2]; po, absolute bioavailability (F), enteric coated sodium caprate tablet with approximately 10 mg derivative (Example 33)): 2.4%
